How the values were obtained:
alfalfa callus = experiment: Resistant growth of transformed alfalfa callus and tissue; type: cell-based, Medicago sativa cv. Rangelander
Description: These explants were dipped into a log phase Agrobacterium culture prepared as described in EXAMPLE I, transferred to fresh co-cultivation plates, and cultured at 24°C with 16 hr. days for 3 days.
The bacteria were killed by washing the explants for 3 hrs. with gentle agitation in washing media, and cultured on fresh selection plates.
The explants were subcultured every 3-4 weeks. […] When callus became more organized, (areas are darker green and more compact) it was transferred to fresh maturation media.

[1] = tested on: Brassica napus callus tissue; experiment: Kanamycin selection of Brassica napus hypocotyl explants; type: cell-based, Brassica napus cv. Olga; conditions: of 100 wound sites; kanamycin 100 mg/L
[2] = tested on: Sensitive N. tabacum Cells; experiment: Co-cultivation of N. tabacum protoplasts with A. tumefaciens, colony formation on selective media; type: cell-based, Nicotiana tabacum var. Wisconsin 38; conditions: for Number of Colony Forming Units derived from 10^5 Protoplast Equivalents One Month after Co-cultivation: Table 7
Description: Sterile tobacco (Nicotiana tabacum var. Wisconsin 38) plants were cultured from 1 cm apical or auxillary explants on OMS Medium in Magenta Boxes under a cycle of a 16 hour light period (6,000-8,000 lux) followed by an 8 hour dark period. When the plants were 5-7 weeks old, fully expanded leaves (3-6 leaves down from the apex) were removed, and two leaves each were placed, top surface down, on 20 mL of protoplast isolation medium in a 100 x 25 mm petri dish. The leaves were then submerged and finely divided with a sharp surgical blade. The midrib was held and the cuts were made outward from it towards the leaf margin at approximately 2 mm intervals. The petri dishes were then sealed with parafilm and the macerated tissue incubated overnight (14-17 hours) in darkness at 27-29°C with gentle gyrotory agitation (20-25 rpm).
The glass tubing was placed in a Babcock bottle, and the cheesecloth was wetted with K3/S(1) Medium. The digested leaf tissue from two petri dishes was carefully poured into the funnel. The cheesecloth was rinsed and expressed into the bottle. The loaded bottles were topped with K3/S(1) Medium, covered with foil and centrifuged at approximately 100 x g for 10 minutes. The floating protoplasts (1-2 mL) were collected with a 1 mL serological pipette and placed in 20 mL of K3/S(1) Medium in another Babcock bottle. After resuspending the protoplasts by gently swirling, the Babcock bottles were topped and centrifuged as before. The floating protoplasts (1-2 mL) were collected as described above and placed in 30 mL of K3/G(1) Medium. The protoplasts were counted in a hemacytometer, and the volume was adjusted to give 1 x 10^+5 protoplasts/mL. 5 mL aliquots of the protoplasts were plated in petri dishes [100 x 20 mm tissue-culture petri dishes (Corning); these dishes were used in all subsequent protoplast manipulations] and cultured in darkness.
When the optical density (at 550 nm) of the A. tumefaciens cultures was 0.6 (log phase culture), approximately 6 hours after dilution, the bacteria were added to plant cells at a multiplicity of approximately 50 bacteria/plant cell (an optical density of 1.0 at 550 nm = 1.4 x 10^9 bacteria). The bacteria and plant cell mixture was co-cultivated for 66 hours at 24°C in low light (approximately 500 lux). Non-transformed protoplast controls were incubated similarly, but without agrobacteria. The following protocol is carried out for each co-cultivation (transformed cells with different agrobacteria, as well as non-transformed cells).
Co-cultivation was terminated by adding 20 mL of a 1:1 mixture of K3/G(2) Medium:C Medium supplemented with 500 mg/liter of cefotaxime (to select against the agrobacteria) to 5 mL of the co-cultivation mixture. The co-cultivated cells were gently and thoroughly resuspended in the new medium by mixing with a 5 or 10 mL serological pipette. The cell density was 2 x 10^4 protoplast equivalents/mL (protoplast equivalents = initial protoplasts, assuming 100% recovery and cell survival) and the osmoticum was 0.35 M. Three 5 mL aliquots of each culture were dispensed into fresh petri dishes.
From this juncture until the cells were embedded in solid medium, the cells were cultured in low light (500-1500 lux) without motion and were aseptically transferred to different media. […] For these transfers, the contents of each plate were collected with a 5 mL serological pipette, placed in separate 15 mL polystyrene conical centrifuge tubes and centrifuged at approximately 50 x g for 5-10 minutes. The supernatant fluid was removed with a pipette without disrupting the loose pellet. Pellets of co-cultivated cells from each plate were then gently resuspended in the appropriate fresh medium.
Each of these cultures was returned to the petri dishes from which they were taken; in this way not all cells needed to be pelleted to effect a medium exchange with minimal cell loss.

tobacco plant cells = experiment: Herbicide resistance in plant cells transformed with site specific mutant sugarbeet ALS gene; type: cell-based; conditions: 2x10^5 starting plant cells; for Kanamycin^R: kanamycin at 50ppm; for Chlorsulfuron^R: chlorsulforon at 2ppb
Description: Introduction of the ALS genes into herbicide sensitive tobacco and sugarbeet, by co-cultivation of the plant cells with A. tumefaciens carrying the ALS genes in the binary vector, was performed as described in EXAMPLE I and EXAMPLE II. Herbicide resistant transformants were obtained with three of the four mutant sugarbeet ALS genes. The frequency of obtaining herbicide resistant transformants was lower than that for kanamycin resistant transformants, and also lower than the frequency of herbicide resistant transformants obtained when the tobacco SURB-Hra gene was used. […] This may reflect either insufficient nucleotide regulatory sequences upstream or downstream of the mutant sugarbeet ALS genes in the DNA fragments used or poor utilization of sugarbeet nucleotide regulatory sequences in tobacco or both. […]
Gene introductions were done by standard co-cultivation method. […] Selection was with chlorsulforon at 2ppb or kanamycin at 50ppm.

tobacco callus = experiment: Growth of tobacco mutant callus (C3, S4, Hra) on herbicide; type: cell-based, Nicotiana tabacum var. Xanthi; conditions: Hra cell line
Description: Callus cultures of sensitive tobacco (Nicotiana tabacum var. Xanthi) were exposed to sulfometuron methyl at 2 ppb according to the method described by Chaleff, U.S. 4,443,971. […] Plants were regenerated from Hra callus cultures. […] ALS activity in extracts of leaves of wild type and homozygous Hra mutant tobacco plants was determined.

[3] = tested on: Cells of N.tabacum cv. W38; experiment: Level of chlorsulfuron resistance in transformed N. tabacum colonies; type: cell-based
ALS = ALS assay, wild type Brassica napus; type: biochemical
Description: Keep on ice. • 2. […] 16K rpm, 4°C. • 4. […] Incubate on ice for 30 minutes. • 6. […] Decant supernatant. • 7. Resuspend pellet in 1 ml cold column buffer. • 8. […] Let this run through column. • 9. Elute proteins with 2X volume of extract loaded. […] Incubate reaction for 1 hour, 30°C. • 12. […] Spin in microfuge 5 minutes. • 13. […] Read at OD 530.

[4] = Gene Origin Sugarbeet, ala(122)-pro
[5] = Gene Origin Sugarbeet, pro(197)-ala/trp(591)-leu
[6] = Gene Origin Sugarbeet, pro(197)-ala
[7] = Gene Origin Sugarbeet, trp(591)-leu
[8] = Gene Origin Tobacco, pro(197)-ala/trp(591)-leu

NC[C@H]1O[C@H](O[C@H]2[C@H](O)[C@@H](O[C@H]3O[C@H](CO)[C@@H](O)[C@H](N)[C@H]3O)[C@H](N)C[C@@H]2N)[C@H](O)[C@@H](O)[C@@H]1O [Kanamycin] was tested, and the “explants that developed callus resistant to kanamycin” value (alfalfa callus; kanamycin at 100mg/L) was “Less than 1%”, the “wound sites that developed callus tissue resistant to kanamycin” value [1] was 20 and the “Number of colony forming units derived from 10^5 protoplast equivalents one month after co-cultivation” value ([2]; Table 4, N.t. (non-cocultured control plant cells), Kanamycin 50 µg/mL) was 0. For the same compound, the “Number of colony forming units derived from 10^5 protoplast equivalents one month after co-cultivation” value ([2]; Table 4, N.t./P145 (pAGS145, herbicide-sensitive ALS from phage clone 1), Kanamycin 50 µg/mL) was 5.9 x 10^2, the “Number of colony forming units derived from 10^5 protoplast equivalents one month after co-cultivation” value ([2]; Table 5, N.t. (non-cocultured control plant cells), Kanamycin 50 µg/mL) was 0 and the “Number of colony forming units derived from 10^5 protoplast equivalents one month after co-cultivation” value ([2]; Table 5, N.t./P112 (pAGS112, kanamycin resistance vector), Kanamycin 50 µg/mL) was 2.5 x 10^3. The “Number of colony forming units derived from 10^5 protoplast equivalents one month after co-cultivation” value ([2]; Table 5, N.t./p152 (pAGS152, phage clone 3), Kanamycin 50 µg/mL) was 6.2 x 10^2, the “Number of Colony Forming Units derived from 10^5 Protoplast Equivalents One Month after Co-cultivation” value ([2]; N.t. (non co-cultured plant cells), Kanamycin 50 ug/ml) was 0 and the “Number of Colony Forming Units derived from 10^5 Protoplast Equivalents One Month after Co-cultivation” value ([2]; N.t./P312 (pAGS312, C3 subclone, φ31 orientation 1), Kanamycin 50 ug/ml) was 65. The “Number of Colony Forming Units derived from 10^5 Protoplast Equivalents One Month after Co-cultivation” value ([2]; N.t./p152 (pAGS152, S4/Hra subclone), Kanamycin 50 ug/ml) was 88, the “Number of Colony Forming Units derived from 10^5 Protoplast Equivalents One Month after Co-cultivation” value ([2]; N.t./p313 (pAGS313, C3 subclone, φ31 orientation 2), Kanamycin 50 ug/ml) was 48 and the “Number of Colony Forming Units derived from 10^5 Protoplast Equivalents One Month after Co-cultivation” value ([2]; N.t./p351 (pAGS351, C3 subclone, φ35), Kanamycin 50 ug/ml) was 139. For the same compound, the “Number of Colony Forming Units derived from 10^5 Protoplast Equivalents One Month after Co-cultivation” value ([2]; N.t./p381 (pAGS381, C3 subclone, φ38), Kanamycin 50 ug/ml) was 87, the “Kanamycin^R” value (tobacco plant cells; [4]) was 415 and the “Kanamycin^R” value (tobacco plant cells; [5]) was 1362. For the same compound, the “Kanamycin^R” value (tobacco plant cells; [6]) was 1073, the “Kanamycin^R” value (tobacco plant cells; [7]) was 1080 and the “Kanamycin^R” value (tobacco plant cells; [8]) was 1083.

With COc1nc(C)nc(NC(=O)NS(=O)(=O)c2ccccc2Cl)n1 [chlorsulfuron] the “cross resistance of cell line” value (tobacco callus) was “cross resistant”, the “resistance of kanamycin resistant sectors” value (alfalfa callus; chlorsulfuron at 50 ppb) was “resistant” and the “chlorsulfuron concentration at which transformant tissue was able to grow” value (alfalfa callus; one transformant) was 1000 ppb. The “chlorsulfuron concentration at which transformant tissue was able to grow” value (alfalfa callus; the other two transformants) was 5000 ppb, the “chlorsulfuron resistance conferred in transformed tobacco calluses” value ([3]; 8.3 kb DNA fragment (SURB-Hra)) was “up to 2000 ppb” and the “concentration colonies could tolerate” value ([3]; colonies derived from co-cultivation with A. tumefaciens containing pAGS152) was “up to 2000 ppb”. For the same compound, the “concentration at which colonies are sensitive” value ([3]; wild type colonies) was 2 ppb, the “chlorsulfuron resistance conferred in transformed tobacco calluses” value ([2]; 6.3 kb DNA fragment (SURA-C3)) was 2 ppb and the “Number of colony forming units derived from 10^5 protoplast equivalents one month after co-cultivation” value ([2]; Table 4, N.t. (non-cocultured control plant cells), Chlorsulfuron 2 ng/mL) was 0. The “Number of colony forming units derived from 10^5 protoplast equivalents one month after co-cultivation” value ([2]; Table 4, N.t./P145 (pAGS145, herbicide-sensitive ALS from phage clone 1), Chlorsulfuron 2 ng/mL) was 0, the “Number of colony forming units derived from 10^5 protoplast equivalents one month after co-cultivation” value ([2]; Table 5, N.t. (non-cocultured control plant cells), Chlorsulfuron 2 ng/mL) was 0 and the “Number of colony forming units derived from 10^5 protoplast equivalents one month after co-cultivation” value ([2]; Table 5, N.t./P112 (pAGS112, kanamycin resistance vector), Chlorsulfuron 2 ng/mL) was 0. For the same compound, the “Number of colony forming units derived from 10^5 protoplast equivalents one month after co-cultivation” value ([2]; Table 5, N.t./p152 (pAGS152, phage clone 3), Chlorsulfuron 2 ng/mL) was 6.5 x 10^2, the “Number of Colony Forming Units derived from 10^5 Protoplast Equivalents One Month after Co-cultivation” value ([2]; N.t. (non co-cultured plant cells), Chlorsulfuron 2 ng/ml) was 0 and the “Number of Colony Forming Units derived from 10^5 Protoplast Equivalents One Month after Co-cultivation” value ([2]; N.t./P312 (pAGS312, C3 subclone, φ31 orientation 1), Chlorsulfuron 2 ng/ml) was 0. The “Number of Colony Forming Units derived from 10^5 Protoplast Equivalents One Month after Co-cultivation” value ([2]; N.t./p152 (pAGS152, S4/Hra subclone), Chlorsulfuron 2 ng/ml) was 83, the “Number of Colony Forming Units derived from 10^5 Protoplast Equivalents One Month after Co-cultivation” value ([2]; N.t./p313 (pAGS313, C3 subclone, φ31 orientation 2), Chlorsulfuron 2 ng/ml) was 0 and the “Number of Colony Forming Units derived from 10^5 Protoplast Equivalents One Month after Co-cultivation” value ([2]; N.t./p351 (pAGS351, C3 subclone, φ35), Chlorsulfuron 2 ng/ml) was 32. For the same compound, the “Number of Colony Forming Units derived from 10^5 Protoplast Equivalents One Month after Co-cultivation” value ([2]; N.t./p381 (pAGS381, C3 subclone, φ38), Chlorsulfuron 2 ng/ml) was 18, the “Percent Uninhibited ALS Activity” value (ALS; 1ppb) was 86.6% and the “Percent Uninhibited ALS Activity” value (ALS; 10ppb) was 28.2%. For the same compound, the “Percent Uninhibited ALS Activity” value (ALS; 100ppb) was 10.1%, the “Percent Uninhibited ALS Activity” value (ALS; 1000ppb) was 7.6% and the “Chlorsulfuron^R” value (tobacco plant cells; [4]) was 0. The “Chlorsulfuron^R” value (tobacco plant cells; [5]) was 91, the “Chlorsulfuron^R” value (tobacco plant cells; [6]) was 35 and the “Chlorsulfuron^R” value (tobacco plant cells; [7]) was 2. The “Chlorsulfuron^R” value (tobacco plant cells; [8]) was 698.

From EP0257993B1, “Nucleic acid fragment encoding herbicide resistant plant acetolactate synthase” (priority 1986, dated 1988)
